# According to patent publication US7833698B2, “Method for determining the response to cancer therapy” (Ventana Medical Systems, Inc., priority 2000, dated 2010):
# Assays:
# Assay type in all cases: cell-based, human
# MCF7 cells [1] = assay: SA-β-Gal staining of drug-treated MCF7 cells; settings: treated 2-3 days with 50 nM doxorubicin or Taxol, stained 10-11 days after release from the drug
# Description: Cells were washed in PBS, fixed for 3-5 minutes at room temperature in 2% formaldehyde and 0.2% glutaraldehyde (or in 3% formaldehyde alone), washed, and incubated at 37° C. in fresh senescence-associated β-Gal (SA-β-Gal) staining solution (1 mg/ml 5-bromo-4-chloro-3-indolyl β-D-galactoside (X-Gal), 20 mg/ml dimethylformamide; 40 mM citric acid/sodium phosphate, pH 6.0; 5 mM potassium ferrocyanide; 5 mM potassium ferricyanide; 150 mM NaCl; 2 mM MgCl2. Staining was evident following 2-4 hours of incubation and maximal staining was reached after in 12-16 hours. To detect lysosomal β-Gal, the staining solution was prepared with citric acid/sodium phosphate at pH 4.0 (Baselga et al., 1999, Proceedings of AACR NCI EORTC International Conference, Abstract 98).
# Red and green filters are suitable for practice of the invention. For SA-β-Gal, a green filter (500 nm) is used to determine the total cytoplasmic area stained with red eosin and compared with the blue area stained for SA-β-Gal (600 nm) as determined using a red filter. […] It is recognized that there are various other staining or optical enhancement methods and filtering methods which can be used to optically enhance one particular area or feature over another cell feature (such as Fast green and eosin).
# Cellular changes are induced by treatment with moderate doses of doxorubicin and Taxol in breast tumor-derived human cell lines. […]
# MCF7 cells [2] = assay: Flow cytometric analysis of drug-treated MCF7 cells; settings: 50 nM, 2-3 days
# Description: Cellular changes are induced by treatment with moderate doses of doxorubicin and Taxol in breast tumor-derived human cell lines. MCF7 cells were treated for 2-3 days with 50 nM doxorubicin or Taxol (doses that induce growth inhibition and cellular death as measured by flow cytometry; as described by, e.g., Dolbeare et al., 1983, Proc. Natl. Acad. Sci. U.S.A. 80:5573-77) and then were stained for SA-β-Gal expression 10-11 days after release from the drug.
# MCF7 cells [3] = assay: p53 and p21CIPI/WAF1 immunostaining with image analysis in MCF7 cells; settings: MCF7 treated for 3 days with doxorubicin
# Source text: The expression of proteins associated with senescence or apoptosis are quantitated by image analysis using a suitable primary antibody (such as Ab-2 for p53, or Ab-1 for WAF1, HSP60, or caspase 3), secondary antibody (such as rabbit anti-mouse IgG), and tertiary ABC complex.
# Tertiary ABC complexes are visualized by treating the sections with diaminobenizidine (DAB) stain under appropriate conditions. In a second step, the tissue is counterstained with another optical enhancement factor, preferably ethyl green. The resulting preparation has green nuclei with varying degrees of brown diaminobenzidine (DAB) precipitate localized to the nuclei (and indicating the level of expression of p53, p21, p16, WAF1, HSP60, or caspase-3 protein). […] Spectral studies have shown that the ethyl green stain offers good spectral separation from the DAB precipitate of the immunoperoxidase technique such that different features of the image can be readily separated by filtering at two different wavelengths. […]
# MCF7 cells were treated for 3 days with doxorubicin and then stained for p53 and p21^CIPI/WAF1 expression. Cells were cultured, stained, and analyzed as described above for SA-β-Gal using appropriate antibodies.
Compound,Percentage of Cells Expressing SA-β-Gal (MCF7 cells [1]) [%],Cellular outcome in flow cytometry histogram / SA-β-Gal+ morphology (MCF7 cells [2]),Cells stained for p21CIPI/WAF1 (% Cells) (MCF7 cells [3]),Cells stained for p53 (% Cells) (MCF7 cells [3])
CC(=O)O[C@H]1C(=O)[C@@]2(C)[C@H]([C@H](OC(=O)c3ccccc3)[C@]3(O)C[C@H](OC(=O)[C@H](O)[C@@H](NC(=O)c4ccccc4)c4ccccc4)C(C)=C1C3(C)C)[C@]1(OC(C)=O)CO[C@@H]1C[C@@H]2O [Taxol],13,apoptosis is evident by the hypodiploid peak,,
"COc1cccc2c1C(=O)c1c(O)c3c(c(O)c1C2=O)C[C@@](O)(C(=O)CO)C[C@@H]3O[C@H]1C[C@H](N)[C@H](O)[C@H](C)O1 [Doxorubicin, doxorubicin]",24,"resulted in senescence and blocks at G1, G2, and G2M",50.81 ± 6,23.93 ± 7
